Measurements taken from paper PMC5869712 (Scientific Reports, 2018).

Key:
[1] = target: T1, Aurora-A (Homo sapiens, UniProt O14965); assay: Eurofins Kinase Profiler panel; format: biochemical
T1 construct: Eurofins Pharma Discovery Services UK Limited (Kinase Profiler service)

[2] = target: T2, JAK3 (Homo sapiens, UniProt P52333); assay: Reversibility assay (jump dilution); format: biochemical; details: jump dilution experiment
T2 construct: ChemPartner (contract assay service)
T2 sequence (P52333 1-1124): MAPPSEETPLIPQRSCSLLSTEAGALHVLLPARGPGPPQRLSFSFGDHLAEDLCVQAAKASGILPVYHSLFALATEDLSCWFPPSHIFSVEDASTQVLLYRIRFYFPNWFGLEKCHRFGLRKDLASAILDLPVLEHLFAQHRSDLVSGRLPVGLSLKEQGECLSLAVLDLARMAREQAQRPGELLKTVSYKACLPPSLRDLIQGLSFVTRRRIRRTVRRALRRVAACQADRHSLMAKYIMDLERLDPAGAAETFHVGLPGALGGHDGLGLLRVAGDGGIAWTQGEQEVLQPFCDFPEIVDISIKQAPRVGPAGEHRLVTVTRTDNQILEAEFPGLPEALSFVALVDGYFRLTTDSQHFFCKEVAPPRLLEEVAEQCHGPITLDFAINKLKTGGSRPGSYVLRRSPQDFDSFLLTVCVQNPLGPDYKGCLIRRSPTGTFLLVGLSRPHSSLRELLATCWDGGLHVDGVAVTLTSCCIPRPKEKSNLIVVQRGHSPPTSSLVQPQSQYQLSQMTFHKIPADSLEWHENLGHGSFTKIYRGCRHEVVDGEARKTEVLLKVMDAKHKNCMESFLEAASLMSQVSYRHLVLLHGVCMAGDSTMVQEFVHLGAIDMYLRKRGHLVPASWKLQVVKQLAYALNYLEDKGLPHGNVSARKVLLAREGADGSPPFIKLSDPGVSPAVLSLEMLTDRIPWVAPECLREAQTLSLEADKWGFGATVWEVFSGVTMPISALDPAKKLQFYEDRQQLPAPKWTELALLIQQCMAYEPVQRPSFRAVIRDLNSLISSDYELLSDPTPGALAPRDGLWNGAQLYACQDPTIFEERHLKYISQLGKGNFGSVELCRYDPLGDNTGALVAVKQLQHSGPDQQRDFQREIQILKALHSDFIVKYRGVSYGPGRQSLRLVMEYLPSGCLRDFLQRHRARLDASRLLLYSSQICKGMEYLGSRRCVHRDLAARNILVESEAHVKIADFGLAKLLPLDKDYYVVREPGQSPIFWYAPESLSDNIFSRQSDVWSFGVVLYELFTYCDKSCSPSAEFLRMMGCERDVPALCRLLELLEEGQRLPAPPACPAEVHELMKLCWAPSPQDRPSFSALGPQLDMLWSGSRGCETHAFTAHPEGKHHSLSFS
Procedure: This test trial of our compound RB1 was performed on a ChemPartner reversibility assay platform (ChemPartner; Shanghai; China). Jump dilution analysis is commonly used. The compound was tested in duplicate under 2 conditions, preincubation with enzyme and no preincubation. The assay protocol guide is commercially available from ChemPartner.
Supplementary Figure S5. […] RB1 with […]
with kinase buffer that contains peptide substrate, ATP and cofactors at the final concentration for reaction, and read conversion data for 20 times for 1 h on caliper.
(1 picture or pasted object on this page, not shown here)

[3] = target: T3, IKKε (Homo sapiens, UniProt Q14164); assay: Eurofins Kinase Profiler panel; format: biochemical; details: read-out: % inhibition (1μM), DMSO control=100%, lower=stronger
T3 construct: purchased Eurofins KinaseProfiler (Eurofins Pharma Discovery Services UK, Dundee); JAK3 also ChemPartner

[4] = test system: IFN-α2b-induced JAK/STAT1 phosphorylation in U2OS cells (JAK1); assay: STAT1 phosphorylation induced by IFN-α2b in U2OS cells, Western blot
[5] = target: T4, IGF-1R (Homo sapiens, UniProt P08069); assay: Eurofins Kinase Profiler panel; format: biochemical; details: read-out: % inhibition (1μM), DMSO control=100%, lower=stronger
T4 construct: purchased Eurofins KinaseProfiler (Eurofins Pharma Discovery Services UK, Dundee); JAK3 also ChemPartner

[6] = target: T5, FAK (Homo sapiens, UniProt Q05397); assay: Eurofins Kinase Profiler panel; format: biochemical; details: read-out: % inhibition (1μM), DMSO control=100%, lower=stronger
T5 construct: Eurofins Pharma Discovery Services UK Limited (Kinase Profiler service)

[7] = target: T6, JAK2 (Homo sapiens, UniProt O60674); assay: Enzymatic Caliper Mobility Shift Assay, ATP at Km; format: biochemical
T6 construct: ChemPartner (contract assay service)
T6 sequence (O60674 whole entry): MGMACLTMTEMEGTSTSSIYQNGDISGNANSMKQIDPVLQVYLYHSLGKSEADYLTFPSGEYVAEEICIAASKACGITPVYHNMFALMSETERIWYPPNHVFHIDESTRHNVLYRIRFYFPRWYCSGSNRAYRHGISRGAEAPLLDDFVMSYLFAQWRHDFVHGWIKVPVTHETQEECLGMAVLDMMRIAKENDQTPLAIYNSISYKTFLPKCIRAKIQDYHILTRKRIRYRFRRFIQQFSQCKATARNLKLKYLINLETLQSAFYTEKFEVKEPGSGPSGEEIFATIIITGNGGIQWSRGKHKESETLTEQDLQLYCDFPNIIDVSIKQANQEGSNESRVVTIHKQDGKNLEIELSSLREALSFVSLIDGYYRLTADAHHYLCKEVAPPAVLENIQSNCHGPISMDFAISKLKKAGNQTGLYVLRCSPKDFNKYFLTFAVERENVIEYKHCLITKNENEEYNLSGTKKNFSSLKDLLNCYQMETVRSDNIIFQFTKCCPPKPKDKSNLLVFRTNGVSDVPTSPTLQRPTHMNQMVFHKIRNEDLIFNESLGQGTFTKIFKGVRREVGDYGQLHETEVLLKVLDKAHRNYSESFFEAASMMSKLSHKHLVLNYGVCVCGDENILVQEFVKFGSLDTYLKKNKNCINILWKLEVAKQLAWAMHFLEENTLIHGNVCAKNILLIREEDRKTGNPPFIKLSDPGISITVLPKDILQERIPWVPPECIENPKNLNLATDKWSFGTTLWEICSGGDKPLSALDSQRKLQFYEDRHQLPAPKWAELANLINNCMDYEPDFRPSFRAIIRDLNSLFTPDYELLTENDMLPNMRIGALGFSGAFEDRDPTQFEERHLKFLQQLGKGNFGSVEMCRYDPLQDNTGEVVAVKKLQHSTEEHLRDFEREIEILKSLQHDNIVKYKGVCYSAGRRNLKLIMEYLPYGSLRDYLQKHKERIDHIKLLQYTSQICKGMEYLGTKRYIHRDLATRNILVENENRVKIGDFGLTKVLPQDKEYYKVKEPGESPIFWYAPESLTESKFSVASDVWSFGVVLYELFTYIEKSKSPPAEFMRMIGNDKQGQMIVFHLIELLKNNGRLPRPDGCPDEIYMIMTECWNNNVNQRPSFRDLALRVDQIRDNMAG
From the text: (§1) The assay protocol guides are commercially available from ChemPartner.

[8] = target: T7, JAK1 (Homo sapiens, UniProt P23458); assay: Enzymatic Caliper Mobility Shift Assay, ATP at Km; format: biochemical
T7 construct: ChemPartner (contract assay service)
T7 sequence (P23458 whole entry): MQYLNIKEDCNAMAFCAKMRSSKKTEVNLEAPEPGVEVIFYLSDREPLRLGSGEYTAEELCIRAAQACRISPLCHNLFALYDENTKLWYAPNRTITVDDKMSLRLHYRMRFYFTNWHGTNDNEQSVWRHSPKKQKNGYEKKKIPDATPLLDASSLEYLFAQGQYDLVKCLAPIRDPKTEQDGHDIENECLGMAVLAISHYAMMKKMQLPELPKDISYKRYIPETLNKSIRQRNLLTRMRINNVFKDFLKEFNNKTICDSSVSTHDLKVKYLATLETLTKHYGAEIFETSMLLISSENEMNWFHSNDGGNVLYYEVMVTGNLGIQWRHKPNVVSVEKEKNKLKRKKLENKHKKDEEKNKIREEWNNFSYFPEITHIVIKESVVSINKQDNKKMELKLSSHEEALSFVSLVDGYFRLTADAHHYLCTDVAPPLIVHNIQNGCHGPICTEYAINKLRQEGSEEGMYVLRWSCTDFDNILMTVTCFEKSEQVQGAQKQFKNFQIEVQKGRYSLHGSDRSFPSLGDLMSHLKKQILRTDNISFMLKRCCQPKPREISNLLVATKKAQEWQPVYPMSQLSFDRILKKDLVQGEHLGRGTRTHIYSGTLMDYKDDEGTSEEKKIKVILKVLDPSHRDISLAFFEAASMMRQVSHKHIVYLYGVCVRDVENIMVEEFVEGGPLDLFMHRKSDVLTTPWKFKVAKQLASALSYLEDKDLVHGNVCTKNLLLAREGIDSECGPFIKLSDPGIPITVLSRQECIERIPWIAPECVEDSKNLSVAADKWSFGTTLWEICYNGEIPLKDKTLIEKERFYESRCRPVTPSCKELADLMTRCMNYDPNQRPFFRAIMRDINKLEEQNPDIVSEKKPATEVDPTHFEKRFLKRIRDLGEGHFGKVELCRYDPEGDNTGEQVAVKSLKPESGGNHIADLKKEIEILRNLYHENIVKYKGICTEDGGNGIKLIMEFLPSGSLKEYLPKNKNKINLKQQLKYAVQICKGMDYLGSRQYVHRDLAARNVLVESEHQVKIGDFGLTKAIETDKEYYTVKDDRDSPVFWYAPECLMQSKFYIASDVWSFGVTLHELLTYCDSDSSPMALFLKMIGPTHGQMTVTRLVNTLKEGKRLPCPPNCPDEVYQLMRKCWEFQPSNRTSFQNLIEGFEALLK
From the text: as §1

[9] = target: T2, JAK3; assay: Enzymatic Caliper Mobility Shift Assay, ATP at Km; format: biochemical
From the text: as §1

[10] = target: TYK2 (Homo sapiens, UniProt P29597); assay: Enzymatic Caliper Mobility Shift Assay, ATP at Km; format: biochemical
Sequence of TYK2 (P29597 whole entry): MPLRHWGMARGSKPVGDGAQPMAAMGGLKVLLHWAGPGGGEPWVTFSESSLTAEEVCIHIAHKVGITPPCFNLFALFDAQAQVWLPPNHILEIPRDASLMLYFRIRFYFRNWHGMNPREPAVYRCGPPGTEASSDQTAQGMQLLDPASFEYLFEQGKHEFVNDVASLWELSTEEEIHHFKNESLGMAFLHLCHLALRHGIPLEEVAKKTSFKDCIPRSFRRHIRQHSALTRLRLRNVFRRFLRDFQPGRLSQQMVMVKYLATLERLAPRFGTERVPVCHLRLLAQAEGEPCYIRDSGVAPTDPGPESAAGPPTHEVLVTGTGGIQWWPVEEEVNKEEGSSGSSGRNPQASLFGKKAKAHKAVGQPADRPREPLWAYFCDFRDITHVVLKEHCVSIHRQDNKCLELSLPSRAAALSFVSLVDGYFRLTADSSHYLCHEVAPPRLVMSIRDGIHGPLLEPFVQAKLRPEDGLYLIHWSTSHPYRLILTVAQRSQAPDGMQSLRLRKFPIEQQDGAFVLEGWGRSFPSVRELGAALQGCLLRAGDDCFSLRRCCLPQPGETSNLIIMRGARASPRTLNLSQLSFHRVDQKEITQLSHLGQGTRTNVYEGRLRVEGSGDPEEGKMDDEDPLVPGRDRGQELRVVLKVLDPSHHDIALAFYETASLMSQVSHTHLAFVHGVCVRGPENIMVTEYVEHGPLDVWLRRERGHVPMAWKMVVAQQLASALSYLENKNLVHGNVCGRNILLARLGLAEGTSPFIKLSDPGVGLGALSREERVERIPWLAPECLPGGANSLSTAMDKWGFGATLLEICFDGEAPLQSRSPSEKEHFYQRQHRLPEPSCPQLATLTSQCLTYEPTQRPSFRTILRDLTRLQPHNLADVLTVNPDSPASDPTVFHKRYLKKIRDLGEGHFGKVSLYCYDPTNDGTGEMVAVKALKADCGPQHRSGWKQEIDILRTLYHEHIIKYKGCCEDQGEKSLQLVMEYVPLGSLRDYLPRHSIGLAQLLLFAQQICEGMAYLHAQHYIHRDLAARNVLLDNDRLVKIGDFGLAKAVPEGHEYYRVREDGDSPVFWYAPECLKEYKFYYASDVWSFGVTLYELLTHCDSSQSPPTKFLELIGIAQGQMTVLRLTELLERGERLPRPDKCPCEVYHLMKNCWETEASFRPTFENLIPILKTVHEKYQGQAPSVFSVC
From the text: as §1

[11] = target: T8, GSK3β (Homo sapiens, UniProt P49841); assay: Eurofins Kinase Profiler panel; format: biochemical; details: read-out: % inhibition (1μM), DMSO control=100%, lower=stronger
T8 construct: purchased Eurofins KinaseProfiler (Eurofins Pharma Discovery Services UK, Dundee); JAK3 also ChemPartner

[12] = test system: serum TNF-α, IL-1β and IL-6 in CIA mice; assay: Serum cytokines of CIA mice by ELISA; format: in vivo, mouse
[13] = target: T9, ALK4 (Homo sapiens, UniProt P36896); assay: Eurofins Kinase Profiler panel; format: biochemical; details: read-out: % inhibition (1μM), DMSO control=100%, lower=stronger
T9 construct: purchased Eurofins KinaseProfiler (Eurofins Pharma Discovery Services UK, Dundee); JAK3 also ChemPartner
T9 sequence (P36896 24-505): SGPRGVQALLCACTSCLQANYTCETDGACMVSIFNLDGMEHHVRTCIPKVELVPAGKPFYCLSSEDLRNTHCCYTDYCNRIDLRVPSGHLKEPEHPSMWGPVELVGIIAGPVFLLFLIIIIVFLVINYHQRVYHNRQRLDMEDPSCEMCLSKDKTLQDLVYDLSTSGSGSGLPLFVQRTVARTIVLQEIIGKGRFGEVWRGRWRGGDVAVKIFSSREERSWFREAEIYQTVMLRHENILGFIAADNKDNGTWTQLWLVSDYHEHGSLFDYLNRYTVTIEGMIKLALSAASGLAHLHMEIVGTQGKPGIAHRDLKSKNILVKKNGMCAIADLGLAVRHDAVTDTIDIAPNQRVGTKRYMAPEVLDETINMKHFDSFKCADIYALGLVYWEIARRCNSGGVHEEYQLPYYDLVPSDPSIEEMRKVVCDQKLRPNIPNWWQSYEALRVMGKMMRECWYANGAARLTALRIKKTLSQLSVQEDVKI

[14] = target: T10, MEK1 (Homo sapiens, UniProt Q02750); assay: Eurofins Kinase Profiler panel; format: biochemical; details: read-out: % inhibition (1μM), DMSO control=100%, lower=stronger
T10 construct: purchased Eurofins KinaseProfiler (Eurofins Pharma Discovery Services UK, Dundee); JAK3 also ChemPartner
T10 sequence (Q02750 whole entry): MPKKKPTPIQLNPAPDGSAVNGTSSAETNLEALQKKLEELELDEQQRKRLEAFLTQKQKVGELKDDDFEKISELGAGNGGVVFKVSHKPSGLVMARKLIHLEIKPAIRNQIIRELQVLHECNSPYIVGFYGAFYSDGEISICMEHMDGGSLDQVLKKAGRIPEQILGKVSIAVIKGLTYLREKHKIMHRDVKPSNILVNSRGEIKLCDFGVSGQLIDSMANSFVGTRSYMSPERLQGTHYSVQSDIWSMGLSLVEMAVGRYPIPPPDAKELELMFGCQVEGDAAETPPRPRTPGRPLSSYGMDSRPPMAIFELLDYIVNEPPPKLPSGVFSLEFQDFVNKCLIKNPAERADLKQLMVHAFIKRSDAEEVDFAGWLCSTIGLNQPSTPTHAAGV

[15] = target: T11, ERBB4 (Homo sapiens, UniProt Q15303); assay: Cys-containing kinase family panel (EurofinsCerep); format: biochemical
T11 construct: EurofinsCerep (contract assay service)

[16] = target: T12, ACK1 (Homo sapiens, UniProt Q07912); assay: Eurofins Kinase Profiler panel; format: biochemical; details: read-out: % inhibition (1μM), DMSO control=100%, lower=stronger
T12 construct: purchased Eurofins KinaseProfiler (Eurofins Pharma Discovery Services UK, Dundee); JAK3 also ChemPartner

[17] = target: T13, BLK (Homo sapiens, UniProt P51451); assay: Cys-containing kinase family panel (EurofinsCerep); format: biochemical
T13 construct: EurofinsCerep (contract assay service)

[18] = Acute toxicity in SD rats, oral; details: Sprague Dawley, rat, in vivo, po
[19] = test system: SD rats; assay: Acute toxicity in SD rats, oral; details: SD rats; oral 0.4 g/kg to 2.0 g/kg
[20] = target: T14, EGFR (Homo sapiens, UniProt P00533); assay: Cys-containing kinase family panel (EurofinsCerep); format: biochemical
T14 construct: EurofinsCerep (contract assay service)
From the text: as §1

[21] = target: T15, TEC (Homo sapiens, UniProt P42680); assay: Cys-containing kinase family panel (EurofinsCerep); format: biochemical
T15 construct: EurofinsCerep (contract assay service)
From the text: as §1

[22] = target: T16, TXK (Homo sapiens, UniProt P42681); assay: Cys-containing kinase family panel (EurofinsCerep); format: biochemical
T16 construct: EurofinsCerep (contract assay service)
From the text: as §1

T1 sequence (O14965 whole entry): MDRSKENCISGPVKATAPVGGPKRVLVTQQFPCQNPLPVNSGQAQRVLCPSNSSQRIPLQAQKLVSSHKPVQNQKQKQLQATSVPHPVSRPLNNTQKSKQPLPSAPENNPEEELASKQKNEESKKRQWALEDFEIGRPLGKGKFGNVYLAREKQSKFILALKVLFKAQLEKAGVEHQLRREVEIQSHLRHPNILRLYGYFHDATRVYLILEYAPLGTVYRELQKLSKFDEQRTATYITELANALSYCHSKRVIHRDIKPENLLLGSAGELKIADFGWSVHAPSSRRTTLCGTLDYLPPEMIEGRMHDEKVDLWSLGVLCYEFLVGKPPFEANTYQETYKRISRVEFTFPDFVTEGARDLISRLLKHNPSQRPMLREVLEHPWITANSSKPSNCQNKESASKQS

Compound: C=CC(=O)N[C@@H]1CCCN(c2ncnc3[nH]ccc23)C1 [RB1]
- IC50 ([1]; estimated): > 0.8 µM
- activity at 1 µM ([1]; read-out: % inhibition (1μM), 1 µM, DMSO control=100%, lower=stronger): 21%
- active JAK3 over time after preincubation [2]: no active JAK3 was detected
- activity at 1 µM [3]: 97%
- IC50 ([4]; Homo sapiens, read-out: IC50, STAT and JAK phosphorylation): > 50 µM
- Selectivity JAK1/JAK3 ([4]; IFN-α2B, pSTAT1): > 1000
- activity at 1 µM [5]: 93%
- activity at 1 µM [6]: 72%
- IC50 [7]: > 5 µM
- inhibition of JAK2 ([7]; at concentrations up to 5 µM): did not inhibit
- IC50 [8]: > 5 µM
- inhibition of JAK1 ([8]; at concentrations up to 5 µM): did not inhibit
- IC50 [9]: 0.04 µM
- preference for JAK3 above JAK2, JAK1 and TYK2 ([9]; kinase assay): over 100 fold
- IC50 ([10]; TYK2, ATP 16.0 μM (Km)): > 5 µM
- inhibition of TYK2 ([10]; at concentrations up to 5 µM): did not inhibit
- activity at 1 µM [11]: 114%
- serum TNF-α, IL-1β and IL-6 levels [12]: significantly reduced in a dose-dependent manner
- activity at 1 µM [13]: 101%
- activity at 1 µM [14]: 92%
- inhibition at 1 µM [15]: -3.5%
- activity at 1 µM [16]: 34%
- inhibition at 1 µM [17]: 8.35%
- LD50 [18]: > 2000 mg/kg
- adverse effects on body weight, behaviour or appetite [19]: no observable adverse effects
- inhibition at 1 µM [20]: 11.2%
- inhibition at 1 µM [21]: 14%
- inhibition at 1 µM [22]: 7.25%
